Source: the supplement of paper PMC10307832

What was measured:
Test in all cases: relative viability (nuclei count vs DMSO), 5 days (fraction); higher = more cells survive
[1] = compound: O=c1[nH]cc(F)c(=O)[nH]1 [5-Fluorouracil] + CS(=O)(=O)N1CCN(Cc2cc3nc(-c4cccc5[nH]ncc45)nc(N4CCOCC4)c3s2)CC1 [Pictilisib] (partner 1 µM)
How it was run: (§1)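 Medians of duplicate plates are given as relative viability. That measure is the nuclei count in treated wells divided by the count in vehicle wells. Counts were taken on 4× images of lung cancer cell lines in 1536-well plates, 5 days after pin-tool dosing the day after seeding with one drug alone or a fixed anchor-drug dose plus five library-drug doses (not always all listed) in √10 steps.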

Sulindac + Luminespib = compound: CC1=C(CC(=O)O)c2cc(F)ccc2/C1=C\c1ccc([S+](C)[O-])cc1 [Sulindac] + CCNC(=O)c1noc(-c2cc(C(C)C)c(O)cc2O)c1-c1ccc(CN2CCOCC2)cc1 [Luminespib] (partner 0.01 µM)
How it was run: as §1

[2] = compound: O=c1[nH]cc(F)c(=O)[nH]1 [5-Fluorouracil] + O=C(CCCCCCC(=O)Nc1ccccc1)NO [Vorinostat] (partner 1 µM)
How it was run: as §1

[3] = compound: CN[C@@H]1C[C@H]2O[C@@](C)([C@@H]1OC)n1c3ccccc3c3c4c(c5c6ccccc6n2c5c31)C(=O)NC4 [Staurosporine] + O=C(CCCCCCC(=O)Nc1ccccc1)NO [Vorinostat] (partner 1 µM)
How it was run: as §1

Cell Line	relative viability ([1]; first compound 0.02 µM)	relative viability ([1]; first compound 0.2 µM)	relative viability ([1]; first compound 0.6325 µM)	relative viability ([1]; first compound 2 µM)	relative viability (Sulindac + Luminespib; first compound 0.08 µM)	relative viability (Sulindac + Luminespib; first compound 0.253 µM)	relative viability (Sulindac + Luminespib; first compound 0.8 µM)	relative viability (Sulindac + Luminespib; first compound 2.53 µM)	relative viability (Sulindac + Luminespib; first compound 8 µM)	relative viability ([2]; first compound 0.02 µM)	relative viability ([2]; first compound 0.2 µM)	relative viability ([2]; first compound 0.6325 µM)	relative viability ([2]; first compound 2 µM)	relative viability ([3]; first compound 0.005 µM)	relative viability ([3]; first compound 0.05 µM)	relative viability ([3]; first compound 0.1581 µM)	relative viability ([3]; first compound 0.5 µM)	relative viability ([3]; first compound 0.01581 µM)
201T	0.759	0.597	0.442	0.373	1.13	1.09	1.07	1.04	1.09	1.04	0.54	0.287	0.228	0.935	0.699	0.354	0.245	
A549	0.578	0.474	0.21	0.12														
A-427	0.664	0.823	0.581	0.587	1.05	0.835	1.06	0.781	1.07	0.812	0.921	0.783	0.419	0.572	0.43	0.161	0.152	0.333
ABC-1	0.885	0.682	0.59	0.599	0.397	0.415	0.687		0.71	0.982	1.24	0.963	0.834	0.667	0.454	0.147	0.117	0.411
BEN	0.557	0.597	0.536	0.555	0.23	0.373	0.597	0.472	0.326	0.566	0.641	0.579	0.633	0.879	0.506	0.319	0.264	0.885
CAL-12T	0.461	0.717	0.346	0.394	0.556	0.3	0.311	0.485	0.524	0.759	0.591	0.563	0.447	0.415	0.165	0.129	0.112	0.231
COR-L23	0.864	0.711	0.367	0.231	0.903	0.555	0.508	0.739	0.952	0.455	0.372	0.239	0.159	0.159	0.0727	0.0709	0.0639	0.147
COR-L 105	0.473	0.458	0.4	0.391	0.677	0.66	0.724	0.793	0.792	0.718	0.881	0.771	0.626	0.69	0.228	0.333	0.224	0.289
Calu-6	1.08	0.948	0.836	0.485														
ChaGo-K-1	0.747	0.919	0.48	0.645	0.526	0.584	0.637	0.587	0.405	0.814	0.687	0.622	0.384	0.791	0.359	0.147	0.144	
EBC-1	0.319	0.33	0.46	0.329														
EKVX			0.151	0.115	0.755	0.792	0.768	0.887	0.897	0.69	0.328			0.597	0.19	0.248	0.181	0.236
EMC-BAC-2	0.616	0.56	0.506	0.536	1.04	1.23	0.802	1.23	1.22	0.448	0.566	0.463	0.226	0.103	0.14	0.166	0.266	
EPLC-272H	0.337	0.294	0.199	0.221	0.211	0.167		0.262	0.255	0.621	0.401	0.279	0.241	0.216	0.0826	0.0904	0.0549	0.141
H3255	0.462	0.498	0.495	0.386	0.85	0.958	0.847	0.954	1.05	0.798	0.77	0.734	0.537	0.276	0.384	0.48	0.133	0.219
HARA	0.562	0.518	0.321	0.373	0.731	1	0.77	0.671	0.963	0.517	0.39	0.281	0.16	0.511	0.307	0.302	0.195	0.114
HCC-15	0.903	0.762	0.539	0.315	0.588	0.351	0.304	0.431	0.389	0.952	0.912	0.554	0.327	0.811	0.485	0.28	0.213	
HCC-44	0.784	0.58	0.46	0.33	0.969	1.08		1.05	1.25	1.09	1.07	0.824	0.544	1.1	0.517	0.27	0.2	
HCC-78	0.236	0.182	0.181							0.463	0.426	0.325	0.232	0.475	0.388	0.367	0.279	0.377
HCC-366	0.166	0.156	0.108	0.0793						0.371	0.365	0.156	0.0639	0.331	0.0353	0.0261	0.0187	
HCC-827	0.749	1.03	0.656	0.478	0.566	0.916	0.475	0.606	0.412	0.556	0.697	0.348	0.272	0.866	0.384	0.174	0.183	0.772
HOP-62	0.711	0.879	0.705	0.569	1.34	0.974	0.708	0.977	0.942	0.629	0.699	0.626	0.509	0.168	0.1	0.0731	0.0573	0.0742

Cell Line	relative viability ([1]; first compound 0.02 µM)	relative viability ([1]; first compound 0.2 µM)	relative viability ([1]; first compound 0.6325 µM)	relative viability ([1]; first compound 2 µM)	relative viability (Sulindac + Luminespib; first compound 0.08 µM)	relative viability (Sulindac + Luminespib; first compound 0.253 µM)	relative viability (Sulindac + Luminespib; first compound 0.8 µM)	relative viability (Sulindac + Luminespib; first compound 2.53 µM)	relative viability (Sulindac + Luminespib; first compound 8 µM)	relative viability ([2]; first compound 0.02 µM)	relative viability ([2]; first compound 0.2 µM)	relative viability ([2]; first compound 0.6325 µM)	relative viability ([2]; first compound 2 µM)	relative viability ([3]; first compound 0.005 µM)	relative viability ([3]; first compound 0.05 µM)	relative viability ([3]; first compound 0.1581 µM)	relative viability ([3]; first compound 0.5 µM)	relative viability ([3]; first compound 0.01581 µM)
IA-LM	0.459	0.286	0.256	0.209						0.906	0.659	0.274	0.25	0.732	0.0781	0.0987	0.105	0.312
LC-2-ad	0.57	0.442	0.324	0.231	1.03	0.947	1.07	0.994	1.18	0.697	0.589	0.42	0.256	0.635	0.217	0.13	0.0772	0.158
LCLC-97TM1	0.184	0.235	0.133	0.139	0.978	0.847	0.673	0.644	0.876	0.575	1.07	0.857	0.272	0.334	0.205	0.113	0.0631	0.0752
LCLC-103H	0.61	0.598	0.536	0.447	1.21	1.09	0.751	0.886	0.996	0.808	0.829	0.673	0.469	0.545	0.251	0.211	0.198	0.16
LK-2	0.635	0.575	0.374	0.452	0.2	0.18			0.167	0.275	0.3	0.303	0.304	0.19	0.246	0.0977	0.0667	0.0826
LOU-NH91	0.512	0.47	0.388	0.34	0.322	0.322	0.314	0.328	0.401	0.937	0.988	0.607	0.35	0.859	0.61	0.267	0.294	0.405
LU99A	0.289	0.314	0.317	0.261	0.164	0.315	0.196	0.243	0.263	0.497	0.479	0.44	0.302	0.452	0.173	0.128	0.107	0.16
LXF-289	0.787	0.689	0.421	0.295	0.821	0.847	0.58	0.715	0.611	0.708	0.67	0.383	0.309	0.73	0.29	0.0781	0.0815	0.249
NCI-H23	0.565	0.53	0.374	0.251	0.174			0.234	0.243	0.512	0.582	0.307	0.21	0.506	0.0962	0.143	0.101	0.0921
NCI-H322M	0.564	0.536	0.529	0.427	0.887	0.819	0.644	0.848	0.881	0.932	0.917	0.787	0.757	0.581	0.451	0.405	0.398	0.424
NCI-H358	0.337	0.354	0.337	0.294	0.202	0.384		0.46	0.359	0.837	0.664	0.529	0.192		0.0628	0.0625	0.0709	0.165
NCI-H441	0.453	0.442	0.35	0.243	0.345	0.326	0.352	0.239	0.289	0.862	0.581	0.327		0.458	0.232	0.144	0.114	0.327
NCI-H460	0.443	0.384	0.155	0.0868	0.0451	0.0347	0.0378	0.0255	0.0267	0.903	0.222	0.082	0.0565		0.0234	0.0138	0.0076	0.179
NCI-H522					1.15	1.01	1.09	1.2	1.22	0.884	1.02	0.982	0.81	0.856	0.75	0.397	0.484	0.452
NCI-H1299	0.953	0.634	0.474	0.248														
NCI-H1563	0.662	0.601	0.647	0.671	0.449	0.553	0.535	0.551	0.498									
NCI-H1623					0.424	0.459	0.51	0.462	0.507									
NCI-H1648										0.482	0.389	0.495	0.263	0.517	0.269	0.246	0.271	0.167
NCI-H1703	0.283	0.25	0.275	0.24														
NCI-H1792	0.337	0.243	0.113	0.0763	0.409	0.475		0.384	0.627									
NCI-H2342					0.636	0.767	0.7	0.761	0.821	0.903	0.86	0.741	0.616	0.987	0.444	0.34	0.3	0.74
SW 900						0.176		0.156	0.173	0.628	0.575	0.562	0.4	0.294	0.171	0.146	0.0929	0.15
